Test [1] addresses T1, Human immunodeficiency virus type 1 integrase (Human immunodeficiency virus 1, UniProt Q7ZJM1). Briefly: Inhibition of HIV1 integrase 3'-processing activity in presence of MnCl2.
The test system of test [2] is U-937. Put plainly: Cytotoxicity against U937 cell line. Format: functional. Particulars: Homo sapiens.
For test [3], the system named is Human immunodeficiency virus 1. Briefly: Antiviral activity against HIV1 3B. Format: functional, organism-based. Particulars: Human immunodeficiency virus 1, 3B.
The subject of test [4] is U-937. Put plainly: Selectivity index (CC50/EC50). Format: functional.
Test [5] deals with T1, Human immunodeficiency virus type 1 integrase. Briefly: Inhibition of HIV1 integrase strand transfer activity in presence of MgCl2 by plate-based electrochemiluminescent assay.
For test [6] the target is unchanged. Briefly: Inhibition of HIV1 integrase strand transfer activity in presence of MgCl2 by gel-based assay.
For test [7] the target is unchanged. Briefly: Inhibition of HIV1 integrase strand transfer activity in presence of MnCl2.
Test [8] has the same target. Briefly: Inhibition of HIV1 integrase 3'-processing activity in presence of MgCl2.

In general, IC50 refers to the concentration that inhibits the measured activity by half. As a reminder, the CC50 is the concentration giving 50% cytotoxicity. Usually EC50 stands for the concentration giving half of the maximal effect. Lower therefore signals a more potent agent.

T1 sequence (Q7ZJM1 whole entry): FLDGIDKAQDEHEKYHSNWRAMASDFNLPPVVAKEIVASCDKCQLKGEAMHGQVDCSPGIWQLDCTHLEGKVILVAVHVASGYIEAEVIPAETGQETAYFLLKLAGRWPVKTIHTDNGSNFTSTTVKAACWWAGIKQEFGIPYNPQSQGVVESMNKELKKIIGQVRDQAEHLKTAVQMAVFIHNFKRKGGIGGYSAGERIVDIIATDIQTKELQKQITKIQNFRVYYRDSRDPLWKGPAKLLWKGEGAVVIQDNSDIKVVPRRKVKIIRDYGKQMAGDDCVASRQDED

For `CCOC(=O)C(=O)/C=C(\O)c1ccc2c(c1)c(=O)c(/C(O)=C/C(=O)C(=O)OCC)cn2Cc1ccc(F)cc1`, the IC50 in test [1] was found to be 40 µM; in test [5] it was 0.38 µM; in test [6] it was 0.29 µM; in test [7], 0.25 µM; in test [8], 21 µM. The CC50 in test [2] was determined as 191 µM. Further, the EC50 in test [3] is 20 µM. This compound also yielded a Selectivity index in test [4] of 9.6.
Take `O=C(O)C(=O)/C=C(\O)c1ccc2c(c1)c(=O)c(/C(O)=C/C(=O)C(=O)O)cn2Cc1ccc(F)cc1`: the CC50 in test [2] was greater than 200 µM.
Consider `O=C(O)C(=O)/C=C(\O)c1ccc2ncc(/C(O)=C/C(=O)C(=O)O)c(O)c2c1`, for which the IC50 is greater than 4.1 µM in test [1]; 9.1 µM in test [5]; 2.9 µM in test [6]; 0.43 µM in test [7]; 22 µM in test [8]. The compound also showed a CC50 in test [2] greater than 200 µM. The compound further yielded an EC50 in test [3] of 36.3 µM. This compound displayed a Selectivity index in test [4] of 5.5.
With `CCOC(=O)C(=O)/C=C(\O)c1ccc2ncc(/C(O)=C/C(=O)C(=O)OCC)c(O)c2c1`, the IC50 in test [1] is greater than 333 µM; in test [5] it was 77 µM; in test [6], 39 µM; in test [7], 80 µM; in test [8], 28 µM. In test [2], this compound showed a CC50 greater than 200 µM. Besides, the concentration giving a half-maximal response (EC50) in test [3] is greater than 50 µM.

These data come from ChEMBL document CHEMBL1138986, “Novel bifunctional quinolonyl diketo acid derivatives as HIV-1 integrase inhibitors: design, synthesis, biological activities, and mechanism of action” (J Med Chem, 2006).
